From patent US20250171744A1, “METHODS OF REPROGRAMMING SOMATIC CELLS AND MATERIALS RELATED THERETO” (CITY OF HOPE, priority 2019, published 2025)

System: FPGS^ko cells
Test: Chemical complementation (nutrient supplementation) of FPGS mutants (FIG. 14)
Type: cell-based, human
Procedure: The growth medium was supplemented with 1 and 2× essential amino acids (EAAs), and cells were grown for […] (A2-A3). Additionally, to check the growth behavior of the mutant in a different basal medium, regular DMEM and IMDM with 1×NEAAs were tested. To rescue the phenotype of FPGS^ko, 5-CHO-THF (1 mM) with sodium hypoxanthine (10 mM) and thymidine (1.6 mM) mixture (HT; Thermo Fisher Scientific) was exogenously applied to IMDM, respectively (A5, A6), and compared with the FPGS^ko cells (A1) and WT cells […] grown with only solvent as a control. […] All the experiments were carried out in triplicate and cell proliferation was measured using a Cellometer. The number of cells for each cell line is compared with the number of colonies for parental 293T cells. Error bars indicate means±SE (n=4). *P<0.05, **P<0.001.
Chemical complementation assays of FPGS mutants: Cells were maintained as monolayers in DMEM with Gluta-Max (Corning) supplemented with 10% FBS at 37° C. in a 5% CO2 atmosphere. To supplement the growth medium with amino acids, 1× and 2× doses of essential amino acids (Thermo Fisher Scientific) were added in the medium and the cells were grown as previously described for 5 days. […] All the experiments were carried out in triplicate, and cell proliferation was measured using a Cellometer Auto T4 Counting Chamber (Nexcelom Bioscience, Lawrence, MA, USA). […]

## Nc1nc2c(c(=O)[nH]1)N(C=O)[C@@H](CNc1ccc(C(=O)N[C@@H](CCC(=O)O)C(=O)O)cc1)CN2 [5-CHO-THF, 6S-5-formyl-5,6,7,8-tetrahydrofolic acid]
IMDM supplemented with 1 mM 5-CHO-THF and 1×NEAAs
  cell growth of FPGS^ko mutant: substantial increases in cell growth
IMDM with 1 mM 5-CHO-THF, 1×NEAAs, hypoxanthine (10 mM) and thymidine (1.6 mM)
  growth rate of FPGS^ko mutant: almost full restoration of growth rate
